Measured values published in patent US20120115724A1, “METHOD OF CONTROLLING UNDESIRED VEGETATION” (SYNGENTA CROP PROTECTION LLC, priority 2009, published 2012).

Tests used:
VERPE Veronica persica = assay: Post-emergence crop and weed test (Example 15); format: in vivo; details: 360 h, 125 g/ha, after 15 days, read-out: Percentage damage VERPE
Method in brief: (§1)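 Post-emergence spray on 14-day glasshouse plants; 5% formulated stock diluted with water + 0.2% (v/v) X-77. Grown on at 22/16 °C, 16 h light, 65% RH, watered twice daily. Visual damage rated day 15, 0–100 scale.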

SIDSP Sida spinosa = assay: Post-emergence crop and weed test (Example 15); format: in vivo; details: 360 h, 125 g/ha, after 15 days, read-out: Percentage damage SIDSP
Method in brief: as §1

IPOHE Ipomoea hederacea = assay: Post-emergence crop and weed test (Example 15); format: in vivo; details: 360 h, 125 g/ha, after 15 days, read-out: Percentage damage IPOHE
Method in brief: as §1

[1] = test system: AMARE Amaranthus retroflexus; assay: Post-emergence crop and weed test (Example 15); format: in vivo; details: 360 h, 125 g/ha, after 15 days, read-out: Percentage damage AMARE
Method in brief: as §1

GALAP Galium aparine = assay: Post-emergence crop and weed test (Example 15); format: in vivo; details: 360 h, 125 g/ha, after 15 days, read-out: Percentage damage GALAP
Method in brief: as §1

GLXMA Soybean = assay: Post-emergence crop and weed test (Example 15); format: in vivo; details: Glycine max, 360 h, 125 g/ha, after 15 days, read-out: Percentage damage GLXMA
Method in brief: as §1

KCHSC Kochia scoparia = assay: Post-emergence crop and weed test (Example 15); format: in vivo; details: Bassia scoparia, 360 h, 125 g/ha, after 15 days, read-out: Percentage damage KCHSC
Method in brief: as §1

[2] = test system: POLCO Polygonum convolvulus; assay: Post-emergence crop and weed test (Example 15); format: in vivo; details: Fallopia convolvulus, 360 h, 125 g/ha, after 15 days, read-out: Percentage damage POLCO
Method in brief: as §1

SINAR Sinapis arvensis = assay: Post-emergence crop and weed test (Example 15); format: in vivo; details: Mutarda arvensis, 360 h, 125 g/ha, after 15 days, read-out: Percentage damage SINAR
Method in brief: as §1

[3] = test system: EPHHL Euphorbia heterophylla; assay: Post-emergence crop and weed test (Example 15); format: in vivo; details: 360 h, 125 g/ha, after 15 days, read-out: Percentage damage EPHHL
Method in brief: as §1

[4] = test system: XANST Xanthium strumarium; assay: Post-emergence crop and weed test (Example 15); format: in vivo; details: 360 h, 125 g/ha, after 15 days, read-out: Percentage damage XANST
Method in brief: as §1

[5] = test system: ABUTH Abutilon theophrasti; assay: Post-emergence crop and weed test (Example 15); format: in vivo; details: 360 h, 125 g/ha, after 15 days, read-out: Percentage damage ABUTH
Method in brief: as §1

CHEAL Chenopodium album = assay: Post-emergence crop and weed test (Example 15); format: in vivo; details: 360 h, 125 g/ha, after 15 days, read-out: Percentage damage CHEAL
Method in brief: as §1

[6] = test system: Amaranthus retroflexus (AMARE); assay: Pre-emergence biological efficacy (Example 13); format: in vivo; details: Amaranthus retroflexus, 312 h; pre-emergence, 1,000 g/ha, after 13 days; read-out: Percentage damage AMARE
Method in brief: (§2)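 Compound formulated in acetone/water (50:50) containing 0.5% Tween 20, diluted into an aqueous spray and applied at 250 or 1000 g/ha a day after sowing. Evaluation at 13 days: 100 = total damage, 0 = no damage.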

[7] = test system: Echinochloa crus-galli (ECHCG); assay: Pre-emergence biological efficacy (Example 13); format: in vivo; details: Echinochloa crus-galli, 312 h; pre-emergence, 1,000 g/ha, after 13 days; read-out: Percentage damage ECHCG
Method in brief: as §2

[8] = test system: Alopecurus myosuroides (ALOMY); assay: Pre-emergence biological efficacy (Example 13); format: in vivo; details: Alopecurus myosuroides, 312 h; pre-emergence, 1,000 g/ha, after 13 days; read-out: Percentage damage ALOMY
Method in brief: as §2

Solanum nigrum (SOLNI) [9] = assay: Pre-emergence biological efficacy (Example 13); format: in vivo; details: Solanum nigrum, 312 h; pre-emergence, 1,000 g/ha, after 13 days; read-out: Percentage damage SOLNI
Method in brief: as §2

Setaria faberi (SETFA) [10] = assay: Pre-emergence biological efficacy (Example 13); format: in vivo; details: Setaria faberi, 312 h; pre-emergence, 1,000 g/ha, after 13 days; read-out: Percentage damage SETFA
Method in brief: as §2

[11] = test system: Ipomea hederaceae (IPOHE); assay: Pre-emergence biological efficacy (Example 13); format: in vivo; details: Ipomoea hederacea, 312 h; pre-emergence, 1,000 g/ha, after 13 days; read-out: Percentage damage IPOHE
Method in brief: as §2

[12] = test system: Amaranthus retroflexus (AMARE); assay: Post-emergence biological efficacy (Example 14); format: in vivo; details: Amaranthus retroflexus, 312 h; post-emergence, 1,000 g/ha, after 13 days; read-out: Percentage damage AMARE
Method in brief: (§3)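 Herbicidal effect was assessed as percent plant damage 13 days after a foliar application of 250 or 1000 g/ha to 8-day-old glasshouse-grown plants, with the compound formulated in 50:50 acetone/water containing 0.5% Tween 20.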

[13] = test system: Echinochloa crus-galli (ECHCG); assay: Post-emergence biological efficacy (Example 14); format: in vivo; details: Echinochloa crus-galli, 312 h; post-emergence, 1,000 g/ha, after 13 days; read-out: Percentage damage ECHCG
Method in brief: as §3

[14] = test system: Alopecurus myosuroides (ALOMY); assay: Post-emergence biological efficacy (Example 14); format: in vivo; details: Alopecurus myosuroides, 312 h; post-emergence, 1,000 g/ha, after 13 days; read-out: Percentage damage ALOMY
Method in brief: as §3

Solanum nigrum (SOLNI) [15] = assay: Post-emergence biological efficacy (Example 14); format: in vivo; details: Solanum nigrum, 312 h; post-emergence, 1,000 g/ha, after 13 days; read-out: Percentage damage SOLNI
Method in brief: as §3

Setaria faberi (SETFA) [16] = assay: Post-emergence biological efficacy (Example 14); format: in vivo; details: Setaria faberi, 312 h; post-emergence, 1,000 g/ha, after 13 days; read-out: Percentage damage SETFA
Method in brief: as §3

[17] = test system: Ipomea hederaceae (IPOHE); assay: Post-emergence biological efficacy (Example 14); format: in vivo; details: Ipomoea hederacea, 312 h; post-emergence, 1,000 g/ha, after 13 days; read-out: Percentage damage IPOHE
Method in brief: as §3

Q: With C=Cc1c(NCc2ccco2)nc(-c2ccc(Cl)c(OC)c2F)nc1C(=O)OC [Compound 6, 2-(4-chloro-2-fluoro-3-methoxyphenyl)-5-ethenyl-4-(furan-2-ylmethylamino)-6-methoxycarbonylpyrimidine] as the compound, how does the pest or weed control at 125 g/ha (VERPE Veronica persica) read?
A: 70%

Q: And the pest or weed control at 125 g/ha (SIDSP Sida spinosa)?
A: 80%

Q: What about the pest or weed control at 125 g/ha (IPOHE Ipomoea hederacea) of the same compound?
A: 80%

Q: What about the pest or weed control at 125 g/ha [1] of the same compound?
A: 100%

Q: What about the pest or weed control at 125 g/ha (GALAP Galium aparine) of the same compound?
A: 70%

Q: What about the plant injury at 125 g/ha (GLXMA Soybean) of the same compound?
A: 10%

Q: And the pest or weed control at 125 g/ha (KCHSC Kochia scoparia)?
A: 60%

Q: And the pest or weed control at 125 g/ha [2]?
A: 70%

Q: What about the pest or weed control at 125 g/ha (SINAR Sinapis arvensis) of the same compound?
A: 60%

Q: And the pest or weed control at 125 g/ha [3]?
A: 90%

Q: What about the pest or weed control at 125 g/ha [4] of the same compound?
A: 100%

Q: And the pest or weed control at 125 g/ha [5]?
A: 80%

Q: And the pest or weed control at 125 g/ha (CHEAL Chenopodium album)?
A: 90%

Q: And the melting point?
A: 100 to 102 °C

Q: And the pest or weed control at 1000 g/ha [6]?
A: 100%

Q: What about the pest or weed control at 1000 g/ha [7] of the same compound?
A: 80%

Q: And the pest or weed control at 1000 g/ha [8]?
A: 70%

Q: What about the pest or weed control at 1000 g/ha (Solanum nigrum (SOLNI) [9]) of the same compound?
A: 100%

Q: What about the pest or weed control at 1000 g/ha (Setaria faberi (SETFA) [10]) of the same compound?
A: 80%

Q: And the pest or weed control at 1000 g/ha [11]?
A: 90%

Q: And the pest or weed control at 1000 g/ha [12]?
A: 100%

Q: What about the pest or weed control at 1000 g/ha [13] of the same compound?
A: 80%

Q: What about the pest or weed control at 1000 g/ha [14] of the same compound?
A: 80%

Q: And the pest or weed control at 1000 g/ha (Solanum nigrum (SOLNI) [15])?
A: 90%

Q: And the pest or weed control at 1000 g/ha (Setaria faberi (SETFA) [16])?
A: 90%

Q: What about the pest or weed control at 1000 g/ha [17] of the same compound?
A: 80%
